Experimental data published in patent publication US10172961B2 (priority 2014, dated 2019).

Tests used:
MV-IC323-EGFP = conditions: for IC50: 72 h
wild type MV G954 = conditions: read-out: IC50, inhibition of MV entry (plaque reduction); wt MV G954, Vero-SLAM cells
Method: Vero-SLAM cell monolayers were infected with wild type MV G954 in the presence MV HRC peptides at the indicated peptide concentrations. Viral entry was assessed by plaque reduction assay. […] Each point represents the mean (±standard error) of four experiments. […] Vero-SLAM cell monolayers were infected with wild type MV-IC323-EGFP. After 90 minutes, medium with the indicated peptide concentrations was added. Viral spread was assessed by using a fluorescent readout of the EGFP after 72 hours. […] Each point represents the mean (±standard deviation) of a representative experiment.
Vero-SLAM monolayer cells were incubated with 40-50 PFU of wild type MV G954 in the presence of various concentrations of peptides. After 90 minutes, 2× minimal essential medium containing 10% FBS was mixed with 1% avicell and added to the dishes. The plates were then incubated at 37° C. for 72 h. After removing the medium overlay, the cells were immunostained for plaque detection. The number of plaques in the control (no peptide) and experimental wells were counted under a dissecting stereoscope.
The inhibitory activities of MV HRC 1, MV HRC 2, MV HRC 3 and MV HRC 4 (FIG. 1) against wt MV G954 were assessed in plaque reduction assays (FIG. 2A).

[1] = rat, in vivo
[2] = biological target: HPIV3 envelope glycoproteins (Human parainfluenza 3 virus, UniProt P06828); assay type: cell-based, Human parainfluenza virus type 3; conditions: fusion assay with HPIV3 envelope glycoproteins; for IC50: read-out: IC50 nM, in vitro efficacy; for IC90: read-out: IC90 nM, in vitro efficacy
Chain of HPIV3 envelope glycoproteins (P06828 110-539 limits assumed): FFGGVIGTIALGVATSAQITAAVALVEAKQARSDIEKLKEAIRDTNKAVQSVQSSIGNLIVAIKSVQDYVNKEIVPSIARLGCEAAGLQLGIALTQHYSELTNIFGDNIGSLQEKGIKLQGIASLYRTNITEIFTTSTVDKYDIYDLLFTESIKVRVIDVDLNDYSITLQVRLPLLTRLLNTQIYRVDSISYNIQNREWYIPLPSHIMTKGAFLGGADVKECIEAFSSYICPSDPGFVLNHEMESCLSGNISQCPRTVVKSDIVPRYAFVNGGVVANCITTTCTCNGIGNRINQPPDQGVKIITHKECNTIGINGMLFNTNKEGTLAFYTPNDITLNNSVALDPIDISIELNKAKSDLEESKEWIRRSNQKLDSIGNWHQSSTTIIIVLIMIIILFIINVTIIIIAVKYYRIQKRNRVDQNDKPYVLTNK
Chain of HPIV3 envelope glycoproteins (P06828 19-109 partner limits assumed): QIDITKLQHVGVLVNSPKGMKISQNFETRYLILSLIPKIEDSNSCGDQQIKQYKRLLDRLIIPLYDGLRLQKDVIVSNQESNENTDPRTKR

[3] = in vivo; cited from earlier work

In the case of `CC[C@H](C)[C@H](NC(=O)[C@H](C)NC(=O)[C@H](CC(N)=O)NC(=O)CNC(=O)[C@H](CC(C)C)NC(=O)[C@H](CC(N)=O)NC(=O)[C@@H](NC(=O)CNC(=O)[C@@H](NC(=O)[C@H](CC(=O)O)NC(=O)[C@H](CC(C)C)NC(=O)[C@H](CCCNC(=N)N)NC(=O)[C@H](CCC(=O)O)NC(=O)[C@H](CC(C)C)NC(=O)[C@H](CO)NC(=O)[C@@H](NC(=O)[C@@H]1CCCN1C(=O)[C@@H]1CCCN1C(C)=O)[C@@H](C)CC)C(C)C)[C@@H](C)O)C(=O)N[C@@H](C)C(=O)N[C@@H](CCCCN)C(=O)N[C@@H](CC(C)C)C(=O)N[C@@H](CCC(=O)O)C(=O)N[C@@H](CC(=O)O)C(=O)N[C@@H](C)C(=O)N[C@@H](CCCCN)C(=O)N[C@@H](CCC(=O)O)C(=O)N[C@@H](CC(C)C)C(=O)N[C@@H](CC(C)C)C(=O)N[C@@H](CCC(=O)O)C(=O)N[C@@H](CO)C(=O)N[C@@H](CO)C(=O)N[C@@H](CC(=O)O)C(=O)N[C@@H](CCC(N)=O)C(=O)N[C@H](C(=O)N[C@@H](CC(C)C)C(=O)N[C@@H](CCCNC(=N)N)C(=O)NCC(=O)N[C@@H](CO)C(=O)NCC(=O)N[C@@H](CO)C(=O)NCC(=O)N[C@@H](CSCC(N)=O)C(N)=O)[C@@H](C)CC` [MV HRC1], the “reduction of viral infection (fluorescence level)” value (MV-IC323-EGFP) is reported as “neither MV HRC 1 nor MV HRC 3 reduced viral infection” and the IC50 (wild type MV G954) is reported as about 7000 nM.
With `CC[C@H](C)[C@H](NC(=O)[C@H](C)NC(=O)[C@H](CC(N)=O)NC(=O)CNC(=O)[C@H](CC(C)C)NC(=O)[C@H](CC(N)=O)NC(=O)[C@@H](NC(=O)CNC(=O)[C@@H](NC(=O)[C@H](CC(=O)O)NC(=O)[C@H](CC(C)C)NC(=O)[C@H](CCCNC(=N)N)NC(=O)[C@H](CCC(=O)O)NC(=O)[C@H](CC(C)C)NC(=O)[C@H](CO)NC(=O)[C@@H](NC(=O)[C@@H]1CCCN1C(=O)[C@@H]1CCCN1C(C)=O)[C@@H](C)CC)C(C)C)[C@@H](C)O)C(=O)N[C@@H](C)C(=O)N[C@@H](CCCCN)C(=O)N[C@@H](CC(C)C)C(=O)N[C@@H](CCC(=O)O)C(=O)N[C@@H](CC(=O)O)C(=O)N[C@@H](C)C(=O)N[C@@H](CCCCN)C(=O)N[C@@H](CCC(=O)O)C(=O)N[C@@H](CC(C)C)C(=O)N[C@@H](CC(C)C)C(=O)N[C@@H](CCC(=O)O)C(=O)N[C@@H](CO)C(=O)N[C@@H](CO)C(=O)N[C@@H](CC(=O)O)C(=O)N[C@@H](CCC(N)=O)C(=O)N[C@H](C(=O)N[C@@H](CC(C)C)C(=O)N[C@@H](CCCNC(=N)N)C(=O)NCC(=O)N[C@@H](CO)C(=O)NCC(=O)N[C@@H](CO)C(=O)NCC(=O)N[C@@H](CSC1=CC(=O)N(CCCC(=O)NCCOCCOCCOCCOCCC(=O)NCCNCCOC2CCC3(C)C(=CCC4C3CCC3(C)C(C(C)CCCC(C)C)CCC43)C2)C1=O)C(N)=O)[C@@H](C)CC` (some centres unmarked) [MV HRC2] the “presence in the brain / CNS localization” value [1] was “a small fraction of the administered peptides was present”, the “presence in the serum” value [1] was “a small fraction of the administered peptides was present” and the IC50 (MV-IC323-EGFP) was about 54 nM.
Work on `CC[C@H](C)[C@H](NC(=O)[C@H](C)NC(=O)[C@H](CC(N)=O)NC(=O)CNC(=O)[C@H](CC(C)C)NC(=O)[C@H](CC(N)=O)NC(=O)[C@@H](NC(=O)CNC(=O)[C@@H](NC(=O)[C@H](CC(=O)O)NC(=O)[C@H](CC(C)C)NC(=O)[C@H](CCCNC(=N)N)NC(=O)[C@H](CCC(=O)O)NC(=O)[C@H](CC(C)C)NC(=O)[C@H](CO)NC(=O)[C@@H](NC(=O)[C@@H]1CCCN1C(=O)[C@@H]1CCCN1C(C)=O)[C@@H](C)CC)C(C)C)[C@@H](C)O)C(=O)N[C@@H](C)C(=O)N[C@@H](CCCCN)C(=O)N[C@@H](CC(C)C)C(=O)N[C@@H](CCC(=O)O)C(=O)N[C@@H](CC(=O)O)C(=O)N[C@@H](C)C(=O)N[C@@H](CCCCN)C(=O)N[C@@H](CCC(=O)O)C(=O)N[C@@H](CC(C)C)C(=O)N[C@@H](CC(C)C)C(=O)N[C@@H](CCC(=O)O)C(=O)N[C@@H](CO)C(=O)N[C@@H](CO)C(=O)N[C@@H](CC(=O)O)C(=O)N[C@@H](CCC(N)=O)C(=O)N[C@H](C(=O)N[C@@H](CC(C)C)C(=O)N[C@@H](CCCNC(=N)N)C(=O)NCC(=O)N[C@@H](CO)C(=O)NCC(=O)N[C@@H](CO)C(=O)NCC(=O)N[C@@H](CSC1=CC(=O)N(CCCC(=O)NCCOCCOCCOCCOCCC(=O)NCCN(CCNC(=O)CCOCCOCCOCCOCCNC(=O)CCCN2C(=O)C=C(SC[C@H](NC(=O)CNC(=O)[C@H](CO)NC(=O)CNC(=O)[C@H](CO)NC(=O)CNC(=O)[C@H](CCCNC(=N)N)NC(=O)[C@H](CC(C)C)NC(=O)[C@@H](NC(=O)[C@H](CCC(N)=O)NC(=O)[C@H](CC(=O)O)NC(=O)[C@H](CO)NC(=O)[C@H](CO)NC(=O)[C@H](CCC(=O)O)NC(=O)[C@H](CC(C)C)NC(=O)[C@H](CC(C)C)NC(=O)[C@H](CCC(=O)O)NC(=O)[C@H](CCCCN)NC(=O)[C@H](C)NC(=O)[C@H](CC(=O)O)NC(=O)[C@H](CCC(=O)O)NC(=O)[C@H](CC(C)C)NC(=O)[C@H](CCCCN)NC(=O)[C@H](C)NC(=O)[C@@H](NC(=O)[C@H](C)NC(=O)[C@H](CC(N)=O)NC(=O)CNC(=O)[C@H](CC(C)C)NC(=O)[C@H](CC(N)=O)NC(=O)[C@@H](NC(=O)CNC(=O)[C@@H](NC(=O)[C@H](CC(=O)O)NC(=O)[C@H](CC(C)C)NC(=O)[C@H](CCCNC(=N)N)NC(=O)[C@H](CCC(=O)O)NC(=O)[C@H](CC(C)C)NC(=O)[C@H](CO)NC(=O)[C@@H](NC(=O)[C@@H]3CCCN3C(=O)[C@@H]3CCCN3C(C)=O)[C@@H](C)CC)C(C)C)[C@@H](C)O)[C@@H](C)CC)[C@@H](C)CC)C(N)=O)C2=O)CCOC2CCC3(C)C(=CCC4C3CCC3(C)C(C(C)CCCC(C)C)CCC43)C2)C1=O)C(N)=O)[C@@H](C)CC` (some centres unmarked) [MV HRC4] yielded an IC50 (MV-IC323-EGFP) of about 55 nM.
With “Ac-VALDPIDISIVLNKIKSDLEESKEWIRRSNKILDSI-GSGSG-C(PEG4-Betulinic)-NH2 (SEQ ID NO: 14) [VIKI-PEG4-Betulinic]” the IC50 [2] was 550 nM and the IC90 [2] was over 1000 nM.
“Ac-VALDPIDISIVLNKIKSDLEESKEWIRRSNKILDSI-GSGSG-C(PEG4-C20)-NH2 (SEQ ID NO: 12) [VIKI-PEG4-C20]” gave an IC50 [2] of 75 nM and an IC90 [2] of 900 nM.
For “Ac-VALDPIDISIVLNKIKSDLEESKEWIRRSNKILDSI-GSGSG-C(PEG4-C30)-NH2 (SEQ ID NO: 13) [VIKI-PEG4-C30]”, the IC50 [2] was 40 nM and the IC90 [2] was 800 nM.
For “Ac-VALDPIDISIVLNKIKSDLEESKEWIRRSNKILDSI-GSGSG-C(PEG4-Ursolic)-NH2 (SEQ ID NO: 15) [VIKI-PEG4-Ursolic]”, the IC50 [2] was 200 nM and the IC90 [2] was over 1000 nM.
In the case of “Ac-VALDPIDISIVLNKIKSDLEESKEWIRRSNKILDSI-GSGSG-C(PEG4-palm)-NH2 (SEQ ID NO: 10) [VIKI-PEG4-palm]”, the IC50 [2] is reported as 400 nM and the IC90 [2] is reported as over 1000 nM.
For enfuvirtide, the “distribution in the CNS” value [3] is listed as “negligible distribution in the CNS”.
